In ChEMBL document CHEMBL3860081, “Design, synthesis and biological evaluation of lapachol derivatives possessing indole scaffolds as topoisomerase I inhibitors” (Bioorg Med Chem, 2016):
Active and inactive are the calls of the source. The calls are words filed in the database; no cut-off is given here.

Experiments:
[1] = Cytotoxicity against human ECA109 cells assessed as decrease in cell proliferation after 48 hrs by MTT assay; format: functional, cell-based; details: ECa-109, 48 h
[2] = Cytotoxicity against human HeLa cells assessed as decrease in cell proliferation after 48 hrs by MTT assay; format: functional, cell-based
[3] = Cytotoxicity against HEEC assessed as decrease in cell proliferation after 48 hrs by MTT assay; format: toxicity; details: human, HEEC cells
[4] = target: T1, DNA topoisomerase 1 (Homo sapiens) (UniProt P11387); test: Inhibition of DNA topoisomerase-1 (unknown origin)-mediated supercoiled pBR322 DNA relaxation at 25 uM after 30 mins by agarose gel electrophoresis
T1 sequence (whole entry): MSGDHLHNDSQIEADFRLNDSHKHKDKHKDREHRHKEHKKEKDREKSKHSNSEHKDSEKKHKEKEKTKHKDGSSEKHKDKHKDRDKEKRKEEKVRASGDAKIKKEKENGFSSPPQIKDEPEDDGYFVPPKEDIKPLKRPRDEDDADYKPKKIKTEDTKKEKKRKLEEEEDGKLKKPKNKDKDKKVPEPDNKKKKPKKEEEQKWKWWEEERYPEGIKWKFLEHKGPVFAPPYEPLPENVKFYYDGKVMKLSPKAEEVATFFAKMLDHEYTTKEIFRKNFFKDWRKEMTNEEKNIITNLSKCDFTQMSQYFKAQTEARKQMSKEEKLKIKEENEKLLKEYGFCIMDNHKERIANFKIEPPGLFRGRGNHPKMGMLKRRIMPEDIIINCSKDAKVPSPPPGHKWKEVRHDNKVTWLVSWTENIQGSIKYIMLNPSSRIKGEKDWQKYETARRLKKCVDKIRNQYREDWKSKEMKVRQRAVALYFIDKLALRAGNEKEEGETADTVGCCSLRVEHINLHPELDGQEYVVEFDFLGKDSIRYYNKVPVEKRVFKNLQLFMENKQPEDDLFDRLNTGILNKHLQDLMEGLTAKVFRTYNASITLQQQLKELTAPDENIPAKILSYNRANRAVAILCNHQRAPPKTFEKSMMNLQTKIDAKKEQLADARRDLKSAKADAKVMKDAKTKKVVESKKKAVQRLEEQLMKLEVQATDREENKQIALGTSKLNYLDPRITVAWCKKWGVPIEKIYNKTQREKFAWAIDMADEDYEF

HeLa [5] = test: Induction of apoptosis in human HeLa cells assessed as chromatin condensation at IC50 after 48 hrs by Hoechst 33342 staining-based fluorescence microscopic method; format: functional, cell-based
HeLa [6] = test: Induction of apoptosis in human HeLa cells assessed as chromatin fragmentation at IC50 after 48 hrs by Hoechst 33342 staining-based fluorescence microscopic method; format: functional, cell-based
[7] = target: T1, DNA topoisomerase 1 (Homo sapiens); test: Inhibition of DNA topoisomerase-1 (unknown origin)-mediated supercoiled pBR322 DNA relaxation at 100 uM after 30 mins by agarose gel electrophoresis
[8] = target: T1, DNA topoisomerase 1 (Homo sapiens); test: Inhibition of DNA topoisomerase-1 (unknown origin)-mediated supercoiled pBR322 DNA relaxation at 5 uM after 30 mins by agarose gel electrophoresis

Row | inhibition [4] | inhibition [7] | inhibition [8] | Structure (SMILES) | IC50 [1] [µM] | IC50 [2] [µM] | IC50 at 48 h [3] [µM] | Activity (HeLa [5]) | Activity (HeLa [6])
1 |  |  |  | COc1cccc(C(C2=C(O)C(=O)c3ccccc3C2=O)c2c[nH]c3ccccc23)c1 (stereo not given) | 40 | 25.6 | 110 |  | 
2 | Active |  |  | Cc1[nH]c2ccccc2c1C(C1=C(O)C(=O)c2ccccc2C1=O)c1ccc([N+](=O)[O-])cc1 (stereo not given) | 6 | 4.57 | 15.1 | Active | Active
3 |  |  |  | CC(C)=CCC1=C(O)C(=O)c2ccccc2C1=O [LAPACHOL] | 12.6 | 20.4 | 20.2 |  | 
4 |  |  |  | O=C1C(O)=C(C(c2cccc([N+](=O)[O-])c2)c2c[nH]c3ccccc23)C(=O)c2ccccc21 (stereo not given) | 36.1 | 24.9 | 91.2 |  | 
5 | Active |  |  | COc1ccc(C(C2=C(O)C(=O)c3ccccc3C2=O)c2c[nH]c3ccccc23)cc1Br (stereo not given) | 11.8 | 7.32 | 25.2 |  | 
6 |  |  |  | O=C1C(O)=C(C(c2ccc(F)cc2)c2c[nH]c3ccccc23)C(=O)c2ccccc21 (stereo not given) | 28.1 | 15.8 | 65.2 |  | 
7 |  | Active |  | COc1cc(C(C2=C(O)C(=O)c3ccccc3C2=O)c2c[nH]c3ccc(Br)cc23)cc(OC)c1OC (stereo not given) | 13 | 9.71 | 36.3 |  | 
8 |  |  |  | O=C1C(O)=C(C(c2ccc(Cl)cc2)c2c[nH]c3ccccc23)C(=O)c2ccccc21 (stereo not given) | 45.8 | 37 | 102 |  | 
9 |  |  |  | Cc1[nH]c2ccccc2c1C(C1=C(O)C(=O)c2ccccc2C1=O)c1ccc(Cl)cc1 (stereo not given) | 14.3 | 8.03 | 40.2 |  | 
10 | Active |  |  | O=C1C(O)=C(C(c2cccc([N+](=O)[O-])c2)c2c(-c3ccccc3)[nH]c3ccccc23)C(=O)c2ccccc21 (stereo not given) | 5.83 | 12.5 | 13.4 |  | 
11 |  |  |  | O=C1C(O)=C(C(c2ccc([N+](=O)[O-])cc2)c2c[nH]c3ccccc23)C(=O)c2ccccc21 (stereo not given) | 60.9 | 14.8 | > 200 |  | 
12 |  |  |  | O=C1C(O)=C(C(c2ccc([N+](=O)[O-])cc2)c2c[nH]c3ccc(Br)cc23)C(=O)c2ccccc21 (stereo not given) | 16.9 | 14.1 | 45.2 |  | 
13 |  |  |  | O=C1C(O)=C(C(c2cccs2)c2c[nH]c3ccccc23)C(=O)c2ccccc21 (stereo not given) | 12.1 | 12.4 | 31.2 |  | 
14 |  |  | Active | O=C1C(O)=C(C(c2ccc([N+](=O)[O-])cc2)c2c(-c3ccccc3)[nH]c3ccccc23)C(=O)c2ccccc21 (stereo not given) | 5.08 | 6.77 | 14.2 | Active | Active
15 |  |  |  | O=C1C(O)=C(C(c2ccccc2)c2c(-c3ccccc3)[nH]c3ccccc23)C(=O)c2ccccc21 (stereo not given) | 5.18 | 18.8 | 26.4 |  | 
16 |  |  |  | COc1ccccc1C(C1=C(O)C(=O)c2ccccc2C1=O)c1c[nH]c2ccccc12 (stereo not given) | > 200 | 128 | > 200 |  | 
17 |  |  |  | CC[C@@]1(O)C(=O)OCc2c1cc1n(c2=O)Cc2cc3ccccc3nc2-1 [CAMPTOTHECIN] | 9.52 | 11.4 | 17.7 |  | 
